Values quoted from earlier work as cited in patent US12458625B2, “Methods and compositions for soft anticholinergic esters” (Bodor Laboratories, Inc., priority 2015, dated 2025).

Details: solid oral form

C[N+]1(C)CCC(OC(=O)C(O)(c2ccccc2)C2CCCC2)C1 (stereo not drawn) [glycopyrrolate]
reducing drooling (children): effective in reducing drooling | dropped out of the study because of adverse effects to the medication (children, most with cerebral palsy): over 20% | children affected by adverse events (most with cerebral palsy): 69%
